Reference: patent US20260256792A1, “TREATMENT OF CHRONIC SPONTANEOUS URTICARIA BY ADMINISTERING (R)-2-[3-[4-AMINO-3-(2-FLUORO-4-PHENOXY-PHENYL)PYRAZOLO[3,4-D]PYRIMIDIN-1-YL]PIPERIDINE-1-CARBONYL]-4-METHYL-4-[4-(OXETAN-3-YL)PIPERAZIN-1-YL]PENT-2-ENENITRILE” (priority 2023, published 2026)

System: moderate-to-severe chronic spontaneous urticaria (CSU)
Test: Phase 2 CSU study: urticaria activity score over 7 days (UAS7)
Assay type: in vivo, human
Set-up: key to UAS7 Median / UAS7 Change from baseline Median / UAS7 change from baseline, Q1 / UAS7 change from baseline, Q3 / UAS7 change from baseline, Max / UAS7 Change from baseline LS Mean (SE): UAS7 points; daily UAS score ranges 0–6 points/day, over 7 days
Excerpt: The study comprises a 12 week, randomized, double-blind, placebo-controlled, multi-center, dose-ranging efficacy and safety phase, followed by a 40 week open label extension (OLE) phase (see FIG. 1). The study consists of three phases and an optional OLE phase. […] Clinically, CSU is characterized by the spontaneous and recurrent appearance of pruritic hives. The proposed primary endpoints were the UAS7 at Week 12 in EU and EU reference countries and the ISS7 in the US. Regardless of where a participant was from, all assessments were the same. The UAS7 score is a composite score containing both the HSS7 and the ISS7. This allowed a global assessment of the two key components of urticaria: hives and itch. […] The UAS is a validated PRO measure. […] The daily UAS scores range from 0 to 6 point/day. […] Patients were to complete the UAS using the e-diary. […] The following secondary endpoints were to be analyzed using the same approach as for the primary endpoint: • Change from baseline in UAS7 at Week 4 • Change from baseline in UAS7 at Week 12 (for US and US reference countries) • Change from baseline in ISS7 at Week 12 (except US and US reference countries) • Change from baseline in HSS7 at Week 12 The following responder secondary endpoints were to be analyzed using the Cochran-Mantel-Haenszel test adjusted by region: • Proportion of participants with UAS7<6 at Week 12 • Proportion of participants with UAS7=0 at Week 12 Participants who received selected prohibited medications and/or rescue medications were to be considered as non-responders for time points after the medication usage. For other participants, all available data including those collected during the off-treatment period were to be used to determine the responder/non-responder status. Missing data were to be considered as non-responders.

[1] = Omalizumab-Naïve Population, 400 mg BID, Week 1
[2] = Omalizumab-Naïve Population, 400 mg BID, Week 2
[3] = Omalizumab-Naïve Population, 400 mg BID, Week 3
[4] = Omalizumab-Naïve Population, 400 mg BID, Week 4
[5] = Omalizumab-Naïve Population, 400 mg BID, Week 12
[6] = Omalizumab-Naïve Population, 400 mg QPM, Week 1
[7] = Omalizumab-Naïve Population, 400 mg QPM, Week 2
[8] = Omalizumab-Naïve Population, 400 mg QPM, Week 3

CC(C)(C=C(C#N)C(=O)N1CCC[C@@H](n2nc(-c3ccc(Oc4ccccc4)cc3F)c3c(N)ncnc32)C1)N1CCN(C2COC2)CC1 [rilzabrutinib, (R)-2-[3-[4-amino-3-(2-fluoro-4-phenoxy-phenyl)pyrazolo[3,4-d]pyrimidin-1-yl]piperidine-1-carbonyl]-4-methyl-4-[4-(oxetan-3-yl)piperazin-1-yl]pent-2-enenitrile]
UAS7 Post-baseline Mean (SD) (Omalizumab-Naïve Population with Outlier Removed, 400 mg QPM, Week 2): 23.44 (8.97) | UAS7 Post-baseline Mean (SD) (Omalizumab-Naïve Population with Outlier Removed, 400 mg QPM, Week 3): 22.01 (9.00) | UAS7 Post-baseline Mean (SD) (Omalizumab-Naïve Population with Outlier Removed, 400 mg QPM, Week 4): 21.92 (8.82) | UAS7 Post-baseline Mean (SD) (Omalizumab-Naïve Population with Outlier Removed, 400 mg QPM, Week 5): 20.63 (9.18) | UAS7 Post-baseline Mean (SD) (Omalizumab-Naïve Population with Outlier Removed, 400 mg QPM, Week 6): 20.21 (10.42) | UAS7 Post-baseline Mean (SD) (Omalizumab-Naïve Population with Outlier Removed, 400 mg QPM, Week 7): 21.11 (10.03) | UAS7 Post-baseline Mean (SD) (Omalizumab-Naïve Population with Outlier Removed, 400 mg QPM, Week 9): 20.25 (10.25) | UAS7 Post-baseline Mean (SD) (Omalizumab-Naïve Population with Outlier Removed, 400 mg QPM, Week 10): 20.27 (10.69) | UAS7 Post-baseline Mean (SD) (Omalizumab-Naïve Population with Outlier Removed, 400 mg QPM, Week 11): 21.17 (11.16) | UAS7 Post-baseline Mean (SD) (Omalizumab-Naïve Population with Outlier Removed, 400 mg TID, Week 1): 18.29 (9.93) | UAS7 Post-baseline Mean (SD) (Omalizumab-Naïve Population with Outlier Removed, 400 mg TID, Week 2): 16.03 (10.59) | UAS7 Post-baseline Mean (SD) (Omalizumab-Naïve Population with Outlier Removed, 400 mg TID, Week 3): 15.20 (9.97) | UAS7 Post-baseline Mean (SD) (Omalizumab-Naïve Population with Outlier Removed, 400 mg TID, Week 4): 14.65 (9.61) | UAS7 Post-baseline Mean (SD) (Omalizumab-Naïve Population with Outlier Removed, 400 mg TID, Week 5): 13.41 (10.60) | UAS7 Post-baseline Mean (SD) (Omalizumab-Naïve Population with Outlier Removed, 400 mg TID, Week 6): 14.10 (11.23) | UAS7 Post-baseline Mean (SD) (Omalizumab-Naïve Population with Outlier Removed, 400 mg TID, Week 7): 13.54 (9.34) | UAS7 Post-baseline Mean (SD) (Omalizumab-Naïve Population with Outlier Removed, 400 mg TID, Week 8): 13.36 (9.81) | UAS7 Post-baseline Mean (SD) (Omalizumab-Naïve Population with Outlier Removed, 400 mg TID, Week 9): 12.57 (9.72) | UAS7 Post-baseline Mean (SD) (Omalizumab-Naïve Population with Outlier Removed, 400 mg TID, Week 10): 12.61 (9.89) | UAS7 Post-baseline Mean (SD) (Omalizumab-Naïve Population with Outlier Removed, 400 mg TID, Week 12): 11.00 (9.90) | UAS7 % Change difference for rilzabrutinib vs. placebo LS Mean (95% CI) [1]: −25.01% | UAS7 % Change from baseline LS Mean (SE) [1]: −34.48 (5.64) % | UAS7 Change difference for rilzabrutinib vs. placebo LS Mean (95% CI) [1]: −6.24 | UAS7 Change from baseline LS Mean (SE) [1]: −9.79 (1.58) | UAS7 Post-baseline Mean (SD) [1]: 19.77 (11.32) | UAS7 % Change difference for rilzabrutinib vs. placebo LS Mean (95% CI) [2]: −18.28% | UAS7 % Change from baseline LS Mean (SE) [2]: −36.05 (5.50) % | UAS7 Change difference for rilzabrutinib vs. placebo LS Mean (95% CI) [2]: −4.55 | UAS7 Change from baseline LS Mean (SE) [2]: −10.44 (1.57) | UAS7 Post-baseline Mean (SD) [2]: 19.59 (10.86) | UAS7 % Change difference for rilzabrutinib vs. placebo LS Mean (95% CI) [3]: −20.16% | UAS7 % Change from baseline LS Mean (SE) [3]: −40.11 (5.66) % | UAS7 Change difference for rilzabrutinib vs. placebo LS Mean (95% CI) [3]: −5.04 | UAS7 Change from baseline LS Mean (SE) [3]: −11.96 (1.67) | UAS7 Post-baseline Mean (SD) [3]: 17.71 (11.91) | UAS7 % Change difference for rilzabrutinib vs. placebo LS Mean (95% CI) [4]: −23.20% | UAS7 % Change from baseline LS Mean (SE) [4]: −43.62 (5.88) % | UAS7 Change difference for rilzabrutinib vs. placebo LS Mean (95% CI) [4]: −5.82 | UAS7 Change from baseline LS Mean (SE) [4]: −12.89 (1.73) | UAS7 Post-baseline Mean (SD) [4]: 15.92 (11.71) | UAS7 Post-baseline Mean (SD) (Omalizumab-Naïve Population, 400 mg BID, Week 5): 17.22 (13.36) | UAS7 Post-baseline Mean (SD) (Omalizumab-Naïve Population, 400 mg BID, Week 6): 17.02 (12.76) | UAS7 Post-baseline Mean (SD) (Omalizumab-Naïve Population, 400 mg BID, Week 7): 15.55 (11.97) | UAS7 Post-baseline Mean (SD) (Omalizumab-Naïve Population, 400 mg BID, Week 8): 13.98 (13.06) | UAS7 Post-baseline Mean (SD) (Omalizumab-Naïve Population, 400 mg BID, Week 9): 14.64 (14.43) | UAS7 Post-baseline Mean (SD) (Omalizumab-Naïve Population, 400 mg BID, Week 10): 15.22 (14.36) | UAS7 Post-baseline Mean (SD) (Omalizumab-Naïve Population, 400 mg BID, Week 11): 15.06 (13.80) | UAS7 % Change difference for rilzabrutinib vs. placebo LS Mean (95% CI) [5]: −17.85% | UAS7 % Change from baseline LS Mean (SE) [5]: −48.13 (6.91) % | UAS7 Change difference for rilzabrutinib vs. placebo LS Mean (95% CI) [5]: −4.09 | UAS7 Change from baseline LS Mean (SE) [5]: −14.24 (2.06) | UAS7 Post-baseline Mean (SD) [5]: 15.61 (13.91) | UAS7 % Change difference for rilzabrutinib vs. placebo LS Mean (95% CI) [6]: −12.19% | UAS7 % Change from baseline LS Mean (SE) [6]: −21.67 (5.45) % | UAS7 Change difference for rilzabrutinib vs. placebo LS Mean (95% CI) [6]: −3.51 | UAS7 Change from baseline LS Mean (SE) [6]: −7.06 (1.52) | UAS7 Post-baseline Mean (SD) [6]: 23.81 (8.78) | UAS7 % Change difference for rilzabrutinib vs. placebo LS Mean (95% CI) [7]: −6.60% | UAS7 % Change from baseline LS Mean (SE) [7]: −24.37 (5.29) % | UAS7 Change difference for rilzabrutinib vs. placebo LS Mean (95% CI) [7]: −1.81 | UAS7 Change from baseline LS Mean (SE) [7]: −7.71 (1.52) | UAS7 Post-baseline Mean (SD) [7]: 23.44 (8.97) | UAS7 % Change difference for rilzabrutinib vs. placebo LS Mean (95% CI) [8]: −8.98% | UAS7 % Change from baseline LS Mean (SE) [8]: −28.93 (5.48) % | UAS7 Change difference for rilzabrutinib vs. placebo LS Mean (95% CI) [8]: −2.17 | UAS7 Change from baseline LS Mean (SE) [8]: −9.10 (1.61)
